Test results taken from patent US12509454B2, “Thiadiazolyl derivatives” (IDEAYA Biosciences, Inc., priority 2019, dated 2025).

Target: Pol theta (1-899) (Homo sapiens (Human), UniProt O75417)
Test: Pol theta ATPase activity, NADH oxidation-coupled enzymatic assay
Type: biochemical
Details: Pol theta (1-899) 10 nM, ATP, dT50 ssDNA, absorbance 340 nm, 10-point dilution series; read-out: ATPase NADH coupling:Standard Screening:hPolQ IC50
Procedure, shortened: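 Pol theta (1-899), 10 nM, preincubated 15 min at RT with 10-point compound series in Tris pH 7.80/KCl/MgCl2 buffer, then given 100 μM ATP plus 300 nM dT50 ssDNA with PK/LDH-coupled NADH oxidation. A340 followed for 30 min; rate slopes fitted with a four-parameter model for IC50.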

Chain of Pol theta (1-899) (O75417 1-899): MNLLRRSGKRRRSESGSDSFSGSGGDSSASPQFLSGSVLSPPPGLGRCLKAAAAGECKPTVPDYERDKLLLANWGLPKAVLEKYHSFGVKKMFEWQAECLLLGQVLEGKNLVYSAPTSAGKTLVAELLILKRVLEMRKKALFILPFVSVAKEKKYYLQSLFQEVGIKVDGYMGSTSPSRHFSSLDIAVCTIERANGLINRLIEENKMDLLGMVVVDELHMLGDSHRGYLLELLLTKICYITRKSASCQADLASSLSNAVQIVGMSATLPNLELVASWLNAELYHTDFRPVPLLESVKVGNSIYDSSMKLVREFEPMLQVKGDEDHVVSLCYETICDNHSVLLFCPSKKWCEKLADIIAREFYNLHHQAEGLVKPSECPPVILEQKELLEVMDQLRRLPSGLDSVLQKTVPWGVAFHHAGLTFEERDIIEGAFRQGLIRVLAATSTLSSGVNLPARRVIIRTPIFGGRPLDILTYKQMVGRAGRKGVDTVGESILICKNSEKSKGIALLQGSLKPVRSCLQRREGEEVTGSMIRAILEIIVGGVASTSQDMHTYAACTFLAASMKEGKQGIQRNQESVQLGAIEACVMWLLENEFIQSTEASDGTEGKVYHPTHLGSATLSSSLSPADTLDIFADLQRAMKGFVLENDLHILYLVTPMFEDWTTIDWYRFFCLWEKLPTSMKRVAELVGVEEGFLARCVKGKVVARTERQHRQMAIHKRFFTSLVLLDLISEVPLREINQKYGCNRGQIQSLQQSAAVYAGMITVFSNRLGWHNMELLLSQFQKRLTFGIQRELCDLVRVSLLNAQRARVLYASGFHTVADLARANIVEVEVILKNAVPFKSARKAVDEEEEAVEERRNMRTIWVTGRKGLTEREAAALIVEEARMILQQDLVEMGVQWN

O=C1CN(c2ncccc2C(=O)Nc2nnc(OCc3ccc(Cl)cc3)s2)CCN1 [Example 27, N-(5-((4-chlorobenzyl)oxy)-1,3,4-thiadiazol-2-yl)-2-(3-oxopiperazin-1-yl)nicotinamide]
IC50: 200 to 500 nM

COc1ccccc1-c1cc(C)ncc1C(=O)Nc1nnc(OCc2ccc(F)cn2)s1 [Example 221, N-[5-[(5-fluoropyridin-2-yl)methoxy]-1,3,4-thiadiazol-2-yl]-4-(2-methoxyphenyl)-6-methylpyridine-3-carboxamide]
IC50: ≤ 200 nM

C[C@@H]1COCCN1c1ncccc1C(=O)Nc1nnc(OCc2ccc(Cl)cc2)s1 [Example 9, (R)—N-(5-((4-chlorobenzyl)oxy)-1,3,4-thiadiazol-2-yl)-2-(3-methylmorpholino)nicotinamide]
IC50: 200 to 500 nM

O=C(Nc1nnc(OCc2ccc(Cl)cc2)s1)c1ccncc1-c1cccc2ncoc12 [Example 111, 3-(benzo[d]oxazol-7-yl)-N-(5-((4-chlorobenzyl)oxy)-1,3,4-thiadiazol-2-yl)isonicotinamide]
IC50: ≤ 200 nM

O=C(Nc1nnc(OCc2ccc(Cl)cc2)s1)c1cccnc1N1CCN2C(=O)CCC2C1 (racemic) [Example 57, (R) N-(5-((4-chlorobenzyl)oxy)-1,3,4-thiadiazol-2-yl)-2-(6-oxohexahydropyrrolo[1,2-a]pyrazin-2(1H)-yl)nicotinamide and (S) N-(5-((4-chlorobenzyl)oxy)-1,3,4-thiadiazol-2-yl)-2-(6-oxohexahydropyrrolo[1,2-a]pyrazin-2(1H)-yl)nicotinamide]
IC50: 500 to 1000 nM

O=C(Nc1nnc(OCc2ccc(Br)cn2)s1)c1cccnc1N1CCOCC1 [Example 15]
IC50: 1000 to 10000 nM

COc1cccc(F)c1-c1cc(C)ncc1C(=O)Nc1nnc(OCc2ccc(C3(C#N)CC3)cn2)s1 [Example 217, N-(5-((5-(1-cyanocyclopropyl)pyridin-2-yl)methoxy)-1,3,4-thiadiazol-2-yl)-4-(2-fluoro-6-methoxyphenyl)-6-methylnicotinamide]
IC50: ≤ 200 nM

CC1CN(c2ncccc2C(=O)Nc2nnc(OCc3ccc(Cl)cc3)s2)CC(=O)N1 (racemic) [Example 46, (R) N-(5-((4-chlorobenzyl)oxy)-1,3,4-thiadiazol-2-yl)-2-(3-methyl-5-oxopiperazin-1-yl)nicotinamide and (S) N-(5-((4-chlorobenzyl)oxy)-1,3,4-thiadiazol-2-yl)-2-(3-methyl-5-oxopiperazin-1-yl)nicotinamide]
IC50: 200 to 500 nM

O=C(Nc1nnc(OCc2ccc(Cl)cn2)s1)c1ccnn1-c1ccccc1 [Example 24, N-(5-((5-chloropyridin-2-yl)methoxy)-1,3,4-thiadiazol-2-yl)-1-phenyl-1H-pyrazole-5-carboxamide]
IC50: 1000 to 10000 nM

Cn1cc(-c2ccncc2C(=O)Nc2nnc(OCc3ccc(Cl)cc3)s2)ccc1=O [Example 122, N-(5-((4-chlorobenzyl)oxy)-1,3,4-thiadiazol-2-yl)-1-methyl-6-oxo-1,6-dihydro-[3,4′-bipyridine]-3′-carboxamide]
IC50: ≤ 200 nM

O=C(Nc1nnc(OCc2ccc(Cl)cc2)s1)c1c[nH]c(=O)cc1N1CCOCC1 [Example 41, N-(5-((4-chlorobenzyl)oxy)-1,3,4-thiadiazol-2-yl)-4-morpholino-6-oxo-1,6-dihydropyridine-3-carboxamide or its tautomer N-(5-((4-chlorobenzyl)oxy)-1,3,4-thiadiazol-2-yl)-6-hydroxy-4-morpholinonicotinamide]
IC50: 1000 to 10000 nM

COc1ccc(-n2cncc2C(=O)Nc2nnc(OCc3ccc(Cl)cc3)s2)cc1 [Example 12, N-(5-((4-chlorobenzyl)oxy)-1,3,4-thiadiazol-2-yl)-1-(4-methoxyphenyl)-1H-imidazole-5-carboxamide]
IC50: 200 to 500 nM

COc1ccccc1-c1cc(C)ncc1C(=O)Nc1nnc(OCc2cc(F)ccn2)s1 [Example 199, N-(5-((4-fluoropyridin-2-yl)methoxy)-1,3,4-thiadiazol-2-yl)-4-(2-methoxyphenyl)-6-methylnicotinamide]
IC50: 200 to 500 nM

COc1ccccc1-c1cc(C)ncc1C(=O)Nc1nnc(OCc2ccc(C3(C#N)CC3)cn2)s1 [Example 220, N-(5-[[5-(1-cyanocyclopropyl)pyridin-2-yl]methoxy]-1,3,4-thiadiazol-2-yl)-4-(2-methoxyphenyl)-6-methylpyridine-3-carboxamide]
IC50: ≤ 200 nM

O=C(Nc1nnc(OCc2ccc(Cl)cc2)s1)c1cncn1C1CCOCC1 [Example 55, N-(5-((4-chlorobenzyl)oxy)-1,3,4-thiadiazol-2-yl)-1-(tetrahydro-2H-pyran-4-yl)-1H-imidazole-5-carboxamide]
IC50: 1000 to 10000 nM

CC1CNC(=O)CN1c1ncccc1C(=O)Nc1nnc(OCc2ccc(Cl)cc2)s1 (racemic) [Example 60, (R) N-(5-((4-chlorobenzyl)oxy)-1,3,4-thiadiazol-2-yl)-2-(2-methyl-5-oxopiperazin-1-yl)nicotinamide and (S) N-(5-((4-chlorobenzyl)oxy)-1,3,4-thiadiazol-2-yl)-2-(2-methyl-5-oxopiperazin-1-yl)nicotinamide]
IC50: ≤ 200 nM

COc1c(CO)cccc1-c1cc(C)ncc1C(=O)Nc1nnc(OCc2ccc(Cl)cn2)s1 [Example 195, N-[5-[(5-chloropyridin-2-yl)methoxy]-1,3,4-thiadiazol-2-yl]-4-[3-(hydroxymethyl)-2-methoxyphenyl]-6-methylpyridine-3-carboxamide]
IC50: ≤ 200 nM

O=C(Nc1nnc(OCc2ccc(Cl)cc2)s1)c1cccnc1C1=CCOCC1 [Example 53, N-(5-((4-chlorobenzyl)oxy)-1,3,4-thiadiazol-2-yl)-2-(3,6-dihydro-2H-pyran-4-yl)nicotinamide]
IC50: 500 to 1000 nM

COc1ccccc1-c1cc(C)ncc1C(=O)Nc1nnc(O[C@@H](C)c2ccc(Cl)cc2)s1 [Example 202, N-[5-[(1S)-1-(4-chlorophenyl)ethoxy]-1,3,4-thiadiazol-2-yl]-4-(2-methoxyphenyl)-6-methylpyridine-3-carboxamide]
IC50: ≤ 200 nM

O=C(Nc1nnc(OCc2ccc(Cl)cc2)s1)c1ccncc1-c1cccc2c1OCCN2 [Example 136, N-[5-[(4-chlorophenyl)methoxy]-1,3,4-thiadiazol-2-yl]-3-(3,4-dihydro-2H-1,4-benzoxazin-8-yl)pyridine-4-carboxamide]
IC50: ≤ 200 nM

Cc1cc(-c2cccc3c2OC(F)(F)O3)c(C(=O)Nc2nnc(OCc3ccc(Cl)cn3)s2)cn1 [Example 208, N-(5-((5-chloropyridin-2-yl)methoxy)-1,3,4-thiadiazol-2-yl)-4-(2,2-difluorobenzo[d][1,3]dioxol-4-yl)-6-methylnicotinamide]
IC50: ≤ 200 nM

COc1ccccc1-c1cncnc1C(=O)Nc1nnc(OCc2ccc(Cl)cn2)s1 [Example 209, N-(5-((5-chloropyridin-2-yl)methoxy)-1,3,4-thiadiazol-2-yl)-5-(2-methoxyphenyl)pyrimidine-4-carboxamide]
IC50: ≤ 200 nM

O=C(Nc1nnc(OCc2ccc(Cl)cc2)s1)c1cccnc1N1CCCOCC1 [Example 6, N-(5-((4-chlorobenzyl)oxy)-1,3,4-thiadiazol-2-yl)-2-(1,4-oxazepan-4-yl)nicotinamide]
IC50: 200 to 500 nM

N#Cc1ccc(OC2COC2)c(-c2cnccc2C(=O)Nc2nnc(OCc3ccc(Cl)cc3)s2)c1 [Example 172, N-(5-((4-chlorobenzyl)oxy)-1,3,4-thiadiazol-2-yl)-3-(5-cyano-2-(oxetan-3-yloxy)phenyl)isonicotinamide]
IC50: ≤ 200 nM

O=C(Nc1nnc(OCc2ccc(Cl)cn2)s1)c1cnnn1-c1ccccc1 [Example 25, N-(5-((5-chloropyridin-2-yl)methoxy)-1,3,4-thiadiazol-2-yl)-1-phenyl-1H-1,2,3-triazole-5-carboxamide]
IC50: 1000 to 10000 nM

CN1CCOc2c(-c3cnccc3C(=O)Nc3nnc(OCc4ccc(Cl)cc4)s3)cccc21 [Example 139, N-[5-[(4-chlorophenyl)methoxy]-1,3,4-thiadiazol-2-yl]-3-(4-methyl-2,3-dihydro-1,4-benzoxazin-8-yl)pyridine-4-carboxamide]
IC50: ≤ 200 nM

COc1ccccc1-c1cc(CCO)ncc1C(=O)Nc1nnc(OCc2ccc(Cl)cc2)s1 [Example 166, N-(5-((4-chlorobenzyl)oxy)-1,3,4-thiadiazol-2-yl)-6-(2-hydroxyethyl)-4-(2-methoxyphenyl)nicotinamide]
IC50: ≤ 200 nM

COc1ccccc1-c1cc(C)ncc1C(=O)Nc1nnc(O[C@H](C)c2ccc(Cl)cc2)s1 [Example 201, N-[5-[(1R)-1-(4-chlorophenyl)ethoxy]-1,3,4-thiadiazol-2-yl]-4-(2-methoxyphenyl)-6-methylpyridine-3-carboxamide]
IC50: 500 to 1000 nM

COc1ccccc1-c1cc(C2CC2)ncc1C(=O)Nc1nnc(OCc2ccc(Cl)cn2)s1 [Example 216, N-[5-[(5-chloropyridin-2-yl)methoxy]-1,3,4-thiadiazol-2-yl]-6-cyclopropyl-4-(2-methoxyphenyl)pyridine-3-carboxamide]
IC50: ≤ 200 nM

COc1ccccc1-c1cc(CN)ncc1C(=O)Nc1nnc(OCc2ccc(Cl)cn2)s1 [Example 204, 6-(aminomethyl)-N-[5-[(5-chloropyridin-2-yl)methoxy]-1,3,4-thiadiazol-2-yl]-4-(2-methoxyphenyl)pyridine-3-carboxamide]
IC50: 1000 to 10000 nM

O=C(Nc1nnc(OCc2ccc(C3CC3)cc2)s1)c1cccnc1N1CCOCC1 [Example 47, N-(5-((4-cyclopropylbenzyl)oxy)-1,3,4-thiadiazol-2-yl)-2-morpholinonicotinamide]
IC50: 200 to 500 nM

N#Cc1cc(N2CCOCC2)c(C(=O)Nc2nnc(OCc3ccc(Cl)cc3)s2)cn1 [Example 35, N-(5-((4-chlorobenzyl)oxy)-1,3,4-thiadiazol-2-yl)-6-cyano-4-morpholinonicotinamide]
IC50: ≤ 200 nM

COc1ccccc1-c1cc2cnnn2cc1C(=O)Nc1nnc(OCc2ccc(Cl)cn2)s1 [Example 223, N-[5-[(5-chloropyridin-2-yl)methoxy]-1,3,4-thiadiazol-2-yl]-5-(2-methoxyphenyl)-[1,2,3]triazolo[1,5-a]pyridine-6-carboxamide]
IC50: ≤ 200 nM
